We go through twelve molecules from ChEMBL document CHEMBL1151517, “Morpholinoalkylindenes as antinociceptive agents: Novel cannabinoid receptor agonists” (Bioorg Med Chem Lett, 1995).

Test [1] relates to Mus musculus. The experiment in a line: Concentration required for inhibition of electrically stimulated contraction of mouse vas deferens […]. Format: functional.
Test [2] has as its target Cannabinoid receptor (Rattus norvegicus, UniProt Q9QZN9+P20272). Kind of test: Displacement of 0.5 nM [3H](R)-(+)-WIN-55212-2 from Cannabinoid receptor of rat cerebellar membranes. Format: cell membranes, Membrane.
Test [3] deals with Mus musculus. Kind of test: Effective dose required for inhibition of oral acetylcholine (ACh) writhing activity in mice at 10 mg/Kg dose. It is filed as functional. A general note: Writhing tests count abdominal constrictions after an irritant is injected.
The target of test [4] is Cannabinoid receptor (Rattus norvegicus) (UniProt Q9QZN9+P20272). The experiment in a line: Inhibition to displace 50% of 0.5 nM [3H](R)-(+)-WIN-55212-2 binding to Cannabinoid receptor in rat cerebellar membranes at 1 uM concentration. The note with it: Membrane. Format: cell membranes.
Test [5] concerns Mus musculus. The experiment in a line: Effective dose required for inhibition of oral acetylcholine (ACh) writhing activity in mice at 100 mg/Kg dose. Format: functional.
The species entered for test [6] is Mus musculus. Kind of test: Effective dose required for inhibition of oral acetylcholine (ACh) writhing activity in mice. Format: functional.
Test [7] is described as follows: Compound was tested for inhibitory activity against prostaglandin synthetase in mouse brain microsomes.

Cannabinoid receptor (Rattus norvegicus), sequence (P20272 whole entry, looked up): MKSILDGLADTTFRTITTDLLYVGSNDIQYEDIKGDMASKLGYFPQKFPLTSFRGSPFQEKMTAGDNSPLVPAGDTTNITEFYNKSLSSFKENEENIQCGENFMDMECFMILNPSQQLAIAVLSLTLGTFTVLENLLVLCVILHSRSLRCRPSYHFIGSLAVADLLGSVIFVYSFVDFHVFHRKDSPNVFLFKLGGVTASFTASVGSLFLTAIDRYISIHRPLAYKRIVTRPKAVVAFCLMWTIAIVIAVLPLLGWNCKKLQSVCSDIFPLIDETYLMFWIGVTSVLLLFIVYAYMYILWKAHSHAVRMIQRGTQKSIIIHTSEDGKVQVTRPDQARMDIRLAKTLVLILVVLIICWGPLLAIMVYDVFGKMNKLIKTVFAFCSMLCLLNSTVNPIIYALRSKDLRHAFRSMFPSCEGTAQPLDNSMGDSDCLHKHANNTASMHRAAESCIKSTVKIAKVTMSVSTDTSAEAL
Cannabinoid receptor (Rattus norvegicus), sequence (Q9QZN9 whole entry, looked up): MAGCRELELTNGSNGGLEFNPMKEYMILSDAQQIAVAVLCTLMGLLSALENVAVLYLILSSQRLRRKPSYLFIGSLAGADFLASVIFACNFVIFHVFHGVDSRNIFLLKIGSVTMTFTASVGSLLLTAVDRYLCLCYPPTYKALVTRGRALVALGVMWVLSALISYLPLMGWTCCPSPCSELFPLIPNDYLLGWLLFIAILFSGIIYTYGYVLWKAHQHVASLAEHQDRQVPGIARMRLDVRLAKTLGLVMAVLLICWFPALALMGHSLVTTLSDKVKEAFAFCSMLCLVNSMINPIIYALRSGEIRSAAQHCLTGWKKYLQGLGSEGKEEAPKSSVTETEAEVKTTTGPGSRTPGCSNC

As for `CC1=C(CCN2CCOCC2)c2ccccc2C1=Cc1cccc2ccccc12`, the results for the IC50 in test [1] and in test [2] were 45 nM and 10000 nM, respectively.

As to `C1=C(CCN2CCOCC2)c2ccccc2/C1=C/c1cccc2ccccc12`, the inhibition in vivo (usually the relative decrease from the control value, in per cent) at 10 mg/kg in test [3] is 83%. The figures for the IC50 in test [1] and in test [2] were 7 nM and 1000 nM, respectively.

For `C1=C(CCN2CCOCC2)c2ccccc2/C1=C/c1ccccc1`, the inhibition (usually the change of the read-out against control, counted positive when it falls) in test [4] was determined as 33%. Moreover, half-maximal inhibition in test [1] (IC50) required 79 nM.

Consider `COc1ccc(/C=C2\C=C(CCN3CCOCC3)c3ccccc32)cc1OC`, for which the IC50 – broadly, the midpoint of a concentration-inhibition curve – came to 19 nM in test [1] and 28000 nM in test [2].

`COc1ccc(C=C2C(C)=C(CCN3CCOCC3)c3ccccc32)c2ccccc12` gave an IC50 in test [1] of 350 nM. In test [5], the inhibition in vivo at 100 mg/kg is 39%.

In the case of `Oc1ccc(/C=C2\C=C(CCN3CCOCC3)c3ccccc32)c2ccccc12`, the half-maximal inhibitory concentration (IC50) in test [2] turned out to be 97000 nM.

As for `COc1ccc(/C=C2\C=C(CCN3CCOCC3)c3ccccc32)c2ccccc12`, the values for the IC50 in test [1] and in test [2] were 8 nM and 900 nM, respectively.

`C[S+]([O-])c1ccc(/C=C2\C=C(CCN3CCOCC3)c3ccccc32)cc1` (centres undefined) came in with an IC50 in test [1] of 190 nM.

For the molecule `COc1ccc(/C=C2\C=C(CCN3CCOCC3)c3ccccc32)cc1`, the results for the IC50 in test [1] and in test [2] were 80 nM and 58 nM, respectively.

`COc1ccc(C=C2C(C)=C(CCN3CCOCC3)c3ccccc32)cc1` registered an inhibition in vivo at 100 mg/kg in test [5] of 30%. This molecule showed an IC50 in test [2] of 45000 nM.

On to `CSc1ccc(/C=C2\C=C(CCN3CCOCC3)c3ccccc32)cc1`, for which the ED50 (as a rule, the dose that gives a 50% effect, or the effect in half of the subjects) in test [6] was found to be 50 mg/kg. Further, the IC50 in test [2] came out at 96000 nM.

In the case of `COc1ccc(C(=O)c2c(C)n(CCN3CCOCC3)c3ccccc23)cc1` [PRAVADOLINE], the 50% effect level in test [6] (ED50) was put at a dose of 41 mg/kg. Besides, the IC50 in test [1] is 530 nM; in test [7], 3500 nM.
